# Where no end group is shown, it is not given here.
# Key:
# [1] = system: yME-961 strain yeast cells; test: Sister chromatid cohesion GFP dot assay; assay type: cell-based; settings: peptide 1 h at G1, release, G2/M arrest
# Method: Figure 4 CIP3 inhibits sister chromatid cohesion and chromosome condensation (A) Flowchart outlining the sister chromatid cohesion assay. (B) yME-961 strain cells were grown and treated with peptides, as shown in A. Premature sister chromatid separation was determined by counting the number of cells showing two GFP dots. At least 300 cells were counted in 3 independent experiments. ∗∗p < 0.001. (C) Cells were grown to mid-log phase. The culture was divided into two flasks, one being treated with CIP3-TAT. Condensation was determined in cells at the G2/M phase by 2-photon microscopy. ∗∗p < 0.001. (D) yKS-008 strain (Smc3-V5) cells were grown and treated with CIP3-TAT peptide, as shown in A. Cells were processed for ChIP with antibodies against V5.
# The potential of CIP3-TAT to inhibit cohesion activity was explored by analyzing sister chromatid cohesion in cells arrested at the G2/M. Inserted in the LYS4 locus were LacO arrays, which bind LacI-GFP. In unperturbed cells arrested at the G2/M phase of the cell cycle, cohesin tethers the sister chromatids visualized under the microscope as a single GFP dot. When cohesin is inactivated, the sister chromatids fall apart and are seen as two distinctive GFP dots. yME-961 strain cells were grown to mid-log phase and arrested at the G1 phase of the cell cycle. […]
# [2] = system: yME-961 strain yeast cells; test: Cell cycle stage by flow cytometry; assay type: cell-based; settings: peptide 1 h at G1, release to G2/M arrest
# Method: The potential of CIP3-TAT to inhibit cohesion activity was explored by analyzing sister chromatid cohesion in cells arrested at the G2/M. Inserted in the LYS4 locus were LacO arrays, which bind LacI-GFP. In unperturbed cells arrested at the G2/M phase of the cell cycle, cohesin tethers the sister chromatids visualized under the microscope as a single GFP dot. When cohesin is inactivated, the sister chromatids fall apart and are seen as two distinctive GFP dots. yME-961 strain cells were grown to mid-log phase and arrested at the G1 phase of the cell cycle. Cells were divided into three samples, of which two were supplemented with TAT peptide alone or CIP3-TAT for 1 h. Then, the cells were released into the cell cycle until their rearrest at the G2/M phase. Cells were processed for cohesion assay (Figure 4A).
# Supplementary Figure S3. Binding of CIP3-TAT to cohesin by microscale thermophoresis, Related to Figure 3. 10 µM CIP3-TAT was added to protein extracts from strain yAM-945 (Smc3-GFP). The formation of the CIP3-TAT and cohesin complex was analyzed by MST in binding mode. A. MST trace. […]
# 3. […] The purified proteins were analyzed on gel, followed by coomassie staining. […]
# Supplementary Figure S5. […] The entry of the peptide into the cells was analyzed by epifluorescence microscopy.
# Supplementary Figure S6. […] The cell cycle stage of the cells, described in Fig. 4B, was determined by flow cytometry. […]
# [3] = system: cohesin (Smc3-V5) on chromatin, yKS-008 strain; test: Chromatin immunoprecipitation (ChIP) of cohesin (Smc3-V5); assay type: cell-based, yeast; settings: G2/M arrested; anti-V5 ChIP-qPCR; centromeres of chromosomes 3 and 4, rDNA locus chromosome 12, CARC1 chromosome 3
# Method: To test the effect of CIP3 on the association of cohesin with chromatin, we performed a chromatin immunoprecipitation (ChIP) assay. yKS-008 strain (Smc3-V5) cells were grown to mid-log phase and arrested in the G1 phase of the cell cycle. Cells were untreated or supplemented with CIP3-TAT and then released into the cell cycle until they were rearrested at the G2/M phase. Cells were processed for ChIP with antibodies against V5 (Figure 4D). Cohesin residency was explored on loci on which cohesin enrichment: the centromeres of chromosome 3 and chromosome 4, the rDNA locus on chromosome 12 and the cohesin-associated region C1 (CARC1) on chromosome 3. […] However, it stabilizes non-cohesive chromosome-bound cohesin. […] Thus, we conclude that CIP3 inhibits ATP hydrolysis rather than blocks ATP binding and cohesin loading.
# The cohesion GFP dot assay and ChIP are described in.[46]^,[63]^,[68] In brief, cohesion was studied by visualizing LacO arrays inserted at the LYS locus in a strain expressing LacI-GFP. Cell cultures were grown in a YEPD to OD600=0.5 and synchronized by nocodazole. Cells were fixed by incubating with 100 μl of 4% paraformaldehyde, 15min at room temperature and washed once (5,000rpm, 30sec, room temperature) with 1ml KOP4/sorbitol solution (0.1 M KOP4 pH=7.5 with 1.2 M sorbitol), resuspended in 100 μl of KOP4/sorbitol and stored at 4°C up to one month. […]
# U2OS cells = test: Mitosis time in U2OS cells (live-cell imaging); assay type: cell-based, human; settings: 10 nM peptide, 20 h, images every 5 min
# Method: CIP3 was derived from a highly conserved region of Smc1 (Figure 1D). Therefore, we sought to test its ability to affect cohesin activity in human cells. U2OS cells were diluted into a 96-well plate and grown for about 20 h. Added to this was 10 nM peptide and the cells were grown for another 20 h. Images of the cells were taken every 5 min (Figure 5A). We expected cohesion loss to result in a mitotic delay. We calculated mitosis time starting from the first image in which condensed mitotic chromosomes were visualized until their disappearance at mitosis exit. Strikingly, the average mitosis time in CIP3-TAT treated cells increased by about 10% (from 6 to 6.5 min), indicating a mitotic delay (Figure 5B).
# Figure 5 CIP3 causes a mitotic delay in human cells U2OS cells were plated in a 96-well plate and grown for 20 h to allow adherence. […] Mitosis length was determined by counting the number of images in which mitotic chromosomes were visualized. […] (B) Quantitation of mitosis length in untreated and CIP3-TAT treated cells. At least 300 cells were counted for each condition. ∗∗∗p < 0.0001.
# U2OS cells were maintained in Dulbecco's Modified Eagle Medium (DMEM) (Gibco) with 10% fetal bovine serum (FBS) (Corning), 2 mM l-glutamine (Gibco), 1% penicillin-streptomycin (Gibco), and 1 mM sodium pyruvate (Gibco), at 37°C, 5% CO2. […] The significance between conditions was determined by using Student's t-test.
sequence,measurement,setting,value
KRFKDMEYLSGGEKTGGYGRKKRRQRRR [CIP3-TAT],sister chromatid cohesion level,[1],precocious separation of the sister chromatids
same,cells with precocious separation of sister chromatids (two GFP dots),"[1]; LacO at LYS4, at least 300 cells in 3 independent experiments",approximately 80%
same,cell cycle delay,[2],No cell cycle delays
same,cohesin residency on chromatin,[3],cohesin residency increased in cells treated with CIP3-TAT in all tested regions
same,average mitosis time,"U2OS cells; untreated: 6 min, at least 300 cells per condition",6.5 min
same,increase of average mitosis time,U2OS cells; vs untreated,about 10%

# — PMC10470313, “Developing a peptide to disrupt cohesin head domain interactions” (iScience, 2023)
